Assay results: patent publication US11090304B2 (Amgen Inc., priority 2018, dated 2021)
Like-named read-outs stand apart in the source and are kept apart here.

Legend:
[1] = biological target: GDP-bound KRAS protein (aa 1-169), containing both G12C and C118A amino acid substitutions (Homo sapiens, UniProt P01116, C118A/G12C); assay: Coupled nucleotide exchange assay (SOS-mediated, AlphaScreen); assay type: biochemical; conditions: for Coupled exchange IC50 (2 h): 2 h compound pre-incubation
[2] = system: Phosphorylation of ERK1/2 in A549 cells; assay: Phospho-ERK1/2 MSD assay in A549 cells; assay type: cell-based; conditions: Homo sapiens
Description: For compounds in Table 89, the following assay conditions were employed:
Phospho-ERK1/2 MSD Assay:
Sixteen hours prior to compound treatment, MIA PaCa-2 or A549 cells were seeded in 96-well cell culture plates at a density of 25,000 cells/well and incubated at 37° C., 5% CO2. A compound dose-response titration was diluted in growth media, added to appropriate wells of a cell culture plate, and then incubated at 37° C., 5% CO2 for 2 or 4 hours (see Table 15). Following compound treatment, cells were stimulated with 10 ng/mL EGF (Roche 11376454001) for 10 min, washed with ice-cold Dulbecco's phosphate-buffered saline, no Ca^2+ or Mg^2+ (ThermoFisher Scientific 14190144), and then lysed in RIPA buffer (50 mM Tris-HCl pH 7.5, 1% Igepal, 0.5% sodium deoxycholate, 150 mM NaCl, and 0.5% sodium dodecyl sulfate) containing protease inhibitors (Roche 4693132001) and phosphatase inhibitors (Roche 4906837001). Phosphorylation of ERK1/2 in compound-treated lysates was assayed using Phospho-ERK1/2 Whole Cell Lysate kits (Meso Scale Discovery K151DWD) according to the manufacturer's protocol. Assay plates were read on a Meso Scale Discovery Sector Imager 6000, and data were analyzed using a 4-parameter logistic model to calculate IC50 values.

[3] = system: Phosphorylation of ERK1/2 in MIA PaCa-2 cells; assay: Phospho-ERK1/2 MSD assay in MIA PaCa-2 cells; assay type: cell-based
Procedure, shortened: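 In the procedure, cells were plated a day ahead at 25,000 per well. Next, a dilution series of compound in growth medium was added for 2 or 4 h. EGF (10 ng/mL) stimulation for 10 min preceded washing and RIPA lysis. Lysate phospho-ERK1/2 was read by MSD, with IC50 derived by 4-parameter logistic analysis.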

[4] = A549, 2 h, read-out: p-ERK IC50 (2 h; A549), 2 h compound treatment
[5] = Homo sapiens, MIA PaCa-2, 2 h, read-out: p-ERK IC50 (2 h; MIA PaCa-2), 2 h compound treatment
[6] = A549, 4 h, read-out: p-ERK IC50 (4 h; A549), 4 h compound treatment
[7] = Homo sapiens, MIA PaCa-2, 4 h, read-out: p-ERK IC50 (4 h; MIA PaCa-2), 4 h compound treatment

Chain of GDP-bound KRAS protein (aa 1-169), containing both G12C and C118A amino acid substitutions (P01116 1-169 isoform P01116-2 G12C/C118A): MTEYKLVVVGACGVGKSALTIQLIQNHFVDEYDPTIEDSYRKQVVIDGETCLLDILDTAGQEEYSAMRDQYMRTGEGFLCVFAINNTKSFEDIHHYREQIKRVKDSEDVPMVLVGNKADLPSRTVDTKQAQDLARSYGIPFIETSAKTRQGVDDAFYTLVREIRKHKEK

IC50 [2, 4]	IC50 [3, 5]	Coupled exchange IC50 (2 h) [1]	IC50 [2, 6]	IC50 [3, 7]	Coupled exchange IC50 (5 min) ([1]; 5 min compound pre-incubation)	IC50 ([3]; read-out: p-ERK IC50 (2 h; MIA PaCa-2), 2 h compound treatment)	SMILES	IC50 ([1]; read-out: Coupled exchange IC50 (5 min), 5 min compound pre-incubation)
≥ 10 µM	1.51 µM	0.112 µM			0.781 µM		C=CC(=O)N1CCN(c2nc(=O)n(-c3c(CC)cccc3CC)c3nc(C4CC4)c(Cl)cc23)[C@@H](C)C1 [Example 94, 6-Chloro-7-cyclopropyl-1-(2,6-diethylphenyl)-4-((2S)-2-methyl-4-(2-propenoyl)-1-piperazinyl)pyrido[2,3-d]pyrimidin-2(1H)-one]	
≥ 10 µM	0.453 µM				0.824 | nda μM		C=CC(=O)N1CCN(c2nc(=O)n(-c3c(Cl)cccc3Cl)c3nc(-c4ccccc4F)c(Cl)cc23)[C@@H](C)C1 [Example 54-30, 6-chloro-1-(2,6-dichlorophenyl)-7-(2-fluorophenyl)-4-((2S)-2-methyl-4-(2-propenoyl)-1-piperazinyl) pyrido[2,3-d]pyrimidin-2(1H)-one]	
≥ 10 µM	0.102 µM				0.076 | nda μM		C=CC(=O)N1CCN(c2nc(=O)n(-c3c(C)ccnc3C(C)C)c3nc(-c4ccccc4F)c(Cl)nc23)[C@@H](C)C1 (single isomer, unassigned) [Example 111-1]	
48.9 µM	2.25 µM						C=CC(=O)N1CCN(c2nc(=O)n(-c3c(CC)cccc3CC)c3nc(C4CCCC4)c(Cl)cc23)[C@@H](C)C1 [Example 54-4, 6~chloro-7-cyclopentyl-1-(2,6-diethylphenyl)-4-((2S)-2-methyl-4-(2-propenoyl)-1-piperazinyl) pyrido[2,3-d]pyrimidin-2(1H)-one]	
			64.8 µM	1.86 µM			C=CC(=O)N1CCN(c2nc(=O)n(-c3ccccc3C(C)C)c3nc(N4CCCCC4)c(Cl)cc23)[C@@H](C)C1 [Example 69-1, 6-Chloro-4-((2S)-2-methyl-4-(2-propenoyl)-1-piperazinyl)-7-(1-piperidinyl)-1-(2-(2-propanyl)phenyl)pyrido[2,3-d]pyrimidin-2(1H)-one]	
≥ 100 µM	0.054 µM		≥ 100 µM	0.084 µM			C=CC(=O)N1CCN(c2nc(=O)n(-c3ccccc3C(C)C)c3nc(-c4ccccc4Cl)c(Cl)cc23)[C@@H](C)C1 [Example 54-84, 6-chloro-7-(2-chlorophenyl)-4-((2S)-2-methyl-4-(2-propenoyl)-1-piperazinyl)-1-(2-(2-propanyl)phenyl)pyrido [2,3-d]pyrimidin-2(1H)-one]	
≥ 10 µM	0.1 µM		≥ 100 µM	0.122 µM			C=CC(=O)N1CCN(c2nc(=O)n(-c3c(CC)cccc3CC)c3nc(-c4c(C)ccc5[nH]ncc45)c(Cl)cc23)[C@@H](C)C1 [Example 54-66, 6-chloro-1-(2,6-diethylphenyl)-7-(5-methyl-1H-indazol-4-yl)-4-((2S)-2-methyl-4-(2-propenoyl)-1-piperazinyl) pyrido[2,3-d]pyrimidin-2(1H)-one]	
≥ 33.3 µM	0.09 µM						C=CC(=O)N1CCN(c2nc(=O)n(-c3ccccc3C(C)C)c3nc(-c4ccccc4F)c(Cl)cc23)[C@@H](C)C1 [Example 54-86, 6-chloro-7-(2-fluorophenyl)-4-((2S)-2-methyl-4-(2-propenoyl)-1-piperazinyl)-1-(2-(2-propanyl)phenyl)pyrido [2,3-d]pyrimidin-2(1H)-one]	
≥ 10 µM	0.687 µM		≥ 11.1 µM	0.294 µM			C=CC(=O)N1CCN(c2nc(=O)n(CC(C)(C)C)c3cc(-c4c(O)cccc4F)c(Cl)cc23)CC1 [Example 89, 6-Chloro-1-(2,2-dimethylpropyl)-7-(2-fluoro-6-hydroxyphenyl)-4-(4-(2-propenoyl)-1-piperazinyl)-2(1H)-quinazolinone]	

Second part, the compound before the results:

SMILES	IC50 [2, 4]	IC50 [3, 5]	Coupled exchange IC50 (2 h) [1]	IC50 [2, 6]	IC50 [3, 7]	Coupled exchange IC50 (5 min) ([1]; 5 min compound pre-incubation)	IC50 ([3]; read-out: p-ERK IC50 (2 h; MIA PaCa-2), 2 h compound treatment)	IC50 ([1]; read-out: Coupled exchange IC50 (5 min), 5 min compound pre-incubation)
C=CC(=O)N1CCN(c2nc(=O)n(-c3c(C)cccc3C)c3nc(-c4c(O)cccc4F)c(Cl)cc23)[C@@H](C)C1 [Example 54-69, 6-chloro-1-(2,6-dimethylphenyl)-7-(2-fluoro-6-hydroxyphenyl)-4-((2S)-2-methyl-4-(2-propenoyl)-1-piperazinyl) pyrido[2,3-d]pyrimidin-2(1H)-one]	≥ 10 µM	0.199 µM						0.306 µM
C=CC(=O)N1CCN(c2nc(=O)n(-c3c(CC)cccc3CC)c3nc(Cl)c(Cl)cc23)[C@@H](C)C1 [Example 54-61, 6,7-dichloro-1-(2,6-diethylphenyl)-4-((2S)-2-methyl-4-(2-propenoyl)-1-piperazinyl) pyrido[2,3-d]pyrimidin-2(1H)-one]			nda | 0.379 μM	≥ 11.1 µM	1.37 µM			
C=CC(=O)N1CCN(c2nc(=O)n(C(CC)CC)c3nc(Cl)c(Cl)cc23)[C@@H](C)C1 [Example 54-3, 6,7-dichloro-4-((2S)-2-methyl-4-(2-propenoyl)-1-piperazinyl)-1-(3-pentanyl) pyrido[2,3-d]pyrimidin-2(1H)-one]			nda | 0.781 μM	≥ 100 µM	8.58 µM			
C=CC(=O)N1C[C@H](C)N(c2nc(=O)n(-c3c(C)ccnc3C(C)C)c3nc(-c4c(O)cccc4F)c(F)cc23)[C@@H](C)C1 (single isomer, unassigned) [Example 75-3]	≥ 10 µM	0.027 µM				0.029 | nda μM		
C=CC(=O)N1CCN(c2nc(=O)n(-c3ccccc3C(C)C)c3nc(N4CCC4)c(Cl)cc23)[C@@H](C)C1 [Example 69-2, 7-(1-azetidinyl)-6-chloro-4-((2S)-2-methyl-4-(2-propenoyl)-1-piperazinyl)-1-(2-(2-propanyl)phenyl)pyrido[2,3-d]pyrimidin-2(1H)-one]	≥ 33.3 µM	1.31 µM	nda | 0.511 μM					
C=CC(=O)N1CCN(c2nc(=O)n(-c3cccnc3C(C)C)c3nc(-c4c(O)cccc4F)c(Cl)cc23)[C@@H](C)C1 [Example 54-11, 6-chloro-7-(2-fluoro-6-hydroxyphenyl)-4-((2S)-2-methyl-4-(2-propenoyl)-1-piperazinyl)-1-(2-(2-propanyl)-3-pyridinyl) pyrido[2,3-d]pyrimidin-2(1H)-one]	≥ 10 µM	0.063 µM				0.069 | nda μM		
C=CC(=O)N1CCN(c2nc(=O)n(-c3ccccc3C(C)C)c3c(C)c(-c4c(O)cccc4F)c(Cl)cc23)[C@@H](C)C1 (single isomer, unassigned) [Example 90-1]				≥ 33.3 µM	0.221 µM			
C=CC(=O)N1CCN(c2nc(=O)n(-c3ccccc3C(C)C)c3nc(Cl)c(Cl)cc23)CC1 [Example 54-80, 6,7-dichloro-1-(2-(2-propanyl)phenyl)-4-(4-(2-propenoyl)-1-piperazinyl) pyrido[2,3-d]pyrimidin-2(1H)-one]				≥ 100 µM	5.64 µM			
C=CC(=O)N1CCN(c2nc(=O)n(-c3ccccc3C(C)C)c3cc(-c4ccccc4F)c(Cl)cc23)[C@@H](C)C1 (single isomer, unassigned) [Example 62-1-1]	≥ 10 µM						0.431 µM	
C=CC(=O)N1CCN(c2nc(=O)n(-c3ccccc3C(C)C)c3nc(Oc4cccc(F)c4)c(Cl)cc23)CC1 [Example 60-23, 6-chloro-7-(3-fluorophenoxy)-1-(2-(2-propanyl)phenyl)-4-(4-(2-propenoyl)-1-piperazinyl)pyrido[2,3-d]pyrimidin-2(1H)-one]				37.9 µM	4.49 µM			
C=CC(=O)N1CCN(c2nc(=O)n(C(CC)CC)c3nc(-c4ccccc4F)c(Cl)cc23)[C@@H](C)C1 [Example 54-2, 6-chloro-7-(2-fluorophenyl)-4-((2S)-2-methyl-4-(2-propenoyl)-1-piperazinyl)-1-(3-pentanyl) pyrido[2,3-d]pyrimidin-2(1H)-one]	≥ 100 µM	66.6 µM		≥ 100 µM	55.6 µM			
C=CC(=O)N1CCN(c2nc(=O)n(-c3ccccc3C(C)C)c3cc(-c4ccccc4F)c(Cl)cc23)[C@@H](C)C1 [Example 62-1, (S)-4-(4-acryloyl-2-methylpiperazin-1-yl)-6-chloro-7-(2-fluorophenyl)-1-(2-isopropylphenyl)quinazolin-2(1H)-one]	≥ 100 µM	0.116 µM						
C=CC(=O)N1CCN(c2nc(=O)n([C@@H]3CCc4ccccc43)c3nc(-c4ccccc4F)c(Cl)cc23)[C@@H](C)C1 [Example 54-67, 6-chloro-1-((1R)-2,3-dihydro-1H-inden-1-yl)-7-(2-fluorophenyl)-4-((2S)-2-methyl-4-(2-propenoyl)-1-piperazinyl) pyrido[2,3-d]pyrimidin-2(1H)-one]	≥ 10 µM	≥ 10 µM						
